Data from patent publication EP1025114B1, “3'-N-MODIFIED 6-O-SUBSTITUTED ERYTHROMYCIN KETOLIDE DERIVATIVES HAVING ANTIBACTERIAL ACTIVITY” (priority 1997, dated 1999).

Legend:
Experiment in all cases: In vitro antibacterial activity, agar dilution MIC
Type in all cases: cell-based
[1] = system: Streptococcus Pheumoniae GYR 1171; conditions: Streptococcus Pheumoniae GYR 1171 (organism code YY); BHI agar, 35-37 °C, 20 to 24 hours; unit assumed
Experimental: (§1) Representative compounds of the present invention were assayed in vitro for antibacterial activity as follows: Twelve petri dishes containing successive aqueous dilutions of the test compound mixed with 10 mL of sterilized Brain Heart infusion (BHI) agar (Difco 0418-01-5) were prepared. Each plate was inoculated with 1:100 (or 1:10 for slow-growing strains, such as Micrococcus and Streptococcus) dilutions of up to 32 different microorganisms, using a Steers replicator block. […] In addition, a control plate, using BHI agar containing no test compound, was prepared and incubated at the beginning and end of each test.
(§2) An additional plate containing a compound having known susceptibility patterns for the organisms being tested and belonging to the same antibiotic class as the test compound was also prepared and incubated as a further control, as well as to provide test-to-test comparability.
(§3) After incubation, each plate was visually inspected. The minimum inhibitory concentration (MIC) was defined as the lowest concentration of drug yielding no growth, a slight haze, or sparsely isolated colonies on the inoculum spot as compared to the growth control.

[2] = system: Staphylococcus aureus A-5278; conditions: Staphylococcus aureus A-5278 (organism code CC); BHI agar, 35-37 °C, 20 to 24 hours; unit assumed
Experimental: as §1, §2, §3

[3] = system: Streptococcus pyogenes PIU 2548; conditions: Streptococcus pyogenes PIU 2548 (organism code NN); BHI agar, 35-37 °C, 20 to 24 hours; unit assumed
Experimental: as §1, §2, §3

[4] = system: Streptococcus Pheumoniae 5649; conditions: Streptococcus Pheumoniae 5649 (organism code ZZA); BHI agar, 35-37 °C, 20 to 24 hours; unit assumed
Experimental: as §1, §2, §3

[5] = system: Candida albicans CCH 442; conditions: Candida albicans CCH 442 (organism code TT); BHI agar, 35-37 °C, 20 to 24 hours; unit assumed
Experimental: as §1, §2, §3

[6] = system: Escherichia coli JUHL; conditions: Escherichia coli JUHL (organism code QQ); BHI agar, 35-37 °C, 20 to 24 hours; unit assumed
Experimental: as §1, §2, §3

[7] = system: Enterococcus faecium ATCC 8043; conditions: Enterococcus faecium ATCC 8043 (organism code II); BHI agar, 35-37 °C, 20 to 24 hours; unit assumed
Experimental: as §1, §2, §3

[8] = system: Streptococcus agalactiae CMX 508; conditions: Streptococcus agalactiae CMX 508 (organism code KK); BHI agar, 35-37 °C, 20 to 24 hours; unit assumed
Experimental: as §1, §2, §3

[9] = system: Streptococcus bovis A-5169; conditions: Streptococcus bovis A-5169 (organism code JJ); BHI agar, 35-37 °C, 20 to 24 hours; unit assumed
Experimental: as §1, §2, §3

[10] = system: Escherichia coli SS; conditions: Escherichia coli SS (organism code RR); BHI agar, 35-37 °C, 20 to 24 hours; unit assumed
Experimental: as §1, §2, §3

[11] = system: Staphylococcus aureus CMX 553; conditions: Staphylococcus aureus CMX 553 (organism code FF); BHI agar, 35-37 °C, 20 to 24 hours; unit assumed
Experimental: as §1, §2, §3

[12] = system: Micrococcus luteus ATCC 4698; conditions: Micrococcus luteus ATCC 4698 (organism code PP); BHI agar, 35-37 °C, 20 to 24 hours; unit assumed
Experimental: as §1, §2, §3

[13] = system: Staphylococcus aureus ATCC 6538P; conditions: Staphylococcus aureus ATCC 6538P (organism code AA); BHI agar, 35-37 °C, 20 to 24 hours; unit assumed
Experimental: as §1, §2, §3

[14] = system: Staphylococcus aureus 1775; conditions: Staphylococcus aureus 1775 (organism code GG); BHI agar, 35-37 °C, 20 to 24 hours; unit assumed
Experimental: as §1, §2, §3

[15] = system: Escherichia coli DC-2; conditions: Escherichia coli DC-2 (organism code SS); BHI agar, 35-37 °C, 20 to 24 hours; unit assumed
Experimental: as §1, §2, §3

[16] = system: Staphylococcus aureus CMX 642A; conditions: Staphylococcus aureus CMX 642A (organism code DD); BHI agar, 35-37 °C, 20 to 24 hours; unit assumed
Experimental: as §1, §2, §3

[17] = system: Staphylococcus epidermidis 3519; conditions: Staphylococcus epidermidis 3519 (organism code HH); BHI agar, 35-37 °C, 20 to 24 hours; unit assumed
Experimental: as §1, §2, §3

[18] = system: Streptococcus Pheumoniae 5979; conditions: Streptococcus Pheumoniae 5979 (organism code ZZ); BHI agar, 35-37 °C, 20 to 24 hours; unit assumed
Experimental: as §1, §2, §3

[19] = system: Haemophilis Influenzae DILL AMP R; conditions: Haemophilis Influenzae DILL AMP R (organism code WW); BHI agar, 35-37 °C, 20 to 24 hours; unit assumed
Experimental: as §1, §2, §3

[20] = system: Micrococcus luteus ATCC 9341; conditions: Micrococcus luteus ATCC 9341 (organism code OO); BHI agar, 35-37 °C, 20 to 24 hours; unit assumed
Experimental: as §1, §2, §3

[21] = system: Streptococcus pyogenes EES61; conditions: Streptococcus pyogenes EES61 (organism code LL); BHI agar, 35-37 °C, 20 to 24 hours; unit assumed
Experimental: as §1, §2, §3

[22] = system: Mycobacterium smegmatis ATCC 114; conditions: Mycobacterium smegmatis ATCC 114 (organism code UU); BHI agar, 35-37 °C, 20 to 24 hours; unit assumed
Experimental: as §1, §2, §3

[23] = system: Staphylococcus aureus A5177; conditions: Staphylococcus aureus A5177 (organism code BB); BHI agar, 35-37 °C, 20 to 24 hours; unit assumed
Experimental: as §1, §2, §3

[24] = system: Streptococcus Pheumoniae ATCC6303; conditions: Streptococcus Pheumoniae ATCC6303 (organism code XX); BHI agar, 35-37 °C, 20 to 24 hours; unit assumed
Experimental: as §1, §2, §3

[25] = system: Staphylococcus aureus NCTC10649M; conditions: Staphylococcus aureus NCTC10649M (organism code EE); BHI agar, 35-37 °C, 20 to 24 hours; unit assumed
Experimental: as §1, §2, §3

[26] = system: Nocardia Asteroides ATCC9970; conditions: Nocardia Asteroides ATCC9970 (organism code VV); BHI agar, 35-37 °C, 20 to 24 hours; unit assumed
Experimental: as §1, §2, §3

[27] = system: Streptococcus pyogenes 930; conditions: Streptococcus pyogenes 930 (organism code MM); BHI agar, 35-37 °C, 20 to 24 hours; unit assumed
Experimental: as §1, §2, §3

Row | SMILES | MIC [1] [µg/mL] | MIC [2] [µg/mL] | MIC [3] [µg/mL] | MIC [4] [µg/mL] | MIC [5] [µg/mL] | MIC [6] [µg/mL] | MIC [7] [µg/mL] | MIC [8] [µg/mL] | MIC [9] [µg/mL] | MIC [10] [µg/mL] | MIC [11] [µg/mL] | MIC [12] [µg/mL] | MIC [13] [µg/mL] | MIC [14] [µg/mL] | MIC [15] [µg/mL] | MIC [16] [µg/mL] | MIC [17] [µg/mL] | MIC [18] [µg/mL] | MIC [20] [µg/mL] | MIC [21] [µg/mL] | also measured
1 | CC[C@H]1OC(=O)[C@H](C)C(=O)[C@H](C)[C@@H](O[C@@H]2O[C@H](C)C[C@H](N(C)C(C)=O)[C@H]2O)[C@](C)(OCC=Cc2cnc3ccccc3c2)C[C@@H](C)C(=O)[C@H](C)[C@H]2NC(=O)O[C@@]21C [Example 4, Compound of Formula (II); R is -CH2CH=CH-(3-quinolyl), R^P is H, W is absent, R^w is H, R^1 is acetyl, R^2 is CH3-] | 0.125 | > 100 | 1.56 | 0.25 | > 100 | > 100 | 1.56 | 0.39 | 0.2 | 100 | 6.2 | 3.1 | 6.2 | > 100 | > 100 | 6.2 | 6.2 | 128 | 0.39 | 0.39 | MIC [19]: > 128 µg/mL; MIC [22]: 25 µg/mL; MIC [23]: 6.2 µg/mL; MIC [24]: 0.25 µg/mL; MIC [25]: 6.2 µg/mL; MIC [26]: 12.5 µg/mL
2 | C#CCN(C)[C@H]1C[C@@H](C)O[C@@H](O[C@@H]2[C@@H](C)C(=O)[C@@H](C)C(=O)O[C@H](CC)[C@@]3(C)OC(=O)N[C@@H]3[C@@H](C)C(=O)[C@H](C)C[C@@]2(C)OCC=Cc2cnc3ccccc3c2)[C@@H]1O [Example 10, Compound of Formula (II); R is -CH2CH=CH-(3-quinolyl), R^p is H, W is absent, R^w is H, R^1 is CH2-C≡CH, R^2 is CH3-] | 0.03 | > 100 | 0.39 | 0.25 | > 100 | > 100 | 0.05 | 0.01 | 0.02 | 1.56 | 0.2 | 0.39 | 0.2 | > 100 | > 100 | 0.2 | 0.2 | 32 | 0.1 | 0.01 | MIC [27]: 6.2 µg/mL; MIC [22]: 1.56 µg/mL; MIC [23]: 0.39 µg/mL; MIC [24]: 0.03 µg/mL; MIC [25]: 0.1 µg/mL; MIC [26]: 0.2 µg/mL
3 | CC[C@H]1OC(=O)[C@H](C)C(=O)[C@H](C)[C@@H](O[C@@H]2O[C@H](C)C[C@H](N(C)Cc3cccnc3)[C@H]2O)[C@](C)(OCC=Cc2cnc3ccccc3c2)C[C@@H](C)C(=O)[C@H](C)[C@H]2NC(=O)O[C@@]21C [Example 14, Compound of Formula (II); R is -CH2CH=CH-(3-quinolyl), R^p is H, W is absent, R^w is H, R^1 is CH2-(3-pyridyl), R^2 is CH3] | 0.03 | > 100 | 0.39 | 0.25 | > 100 | > 100 | 0.05 | 0.2 | 0.05 | 0.78 | 0.39 | 0.39 | 0.39 | > 100 | > 100 | 0.39 | 0.39 | > 128 | 0.05 | 0.05 | MIC [27]: 50 µg/mL; MIC [22]: 0.39 µg/mL; MIC [23]: 0.39 µg/mL; MIC [24]: 0.03 µg/mL; MIC [25]: 0.39 µg/mL; MIC [26]: 0.2 µg/mL
